Results on 2 molecules are retold here after patent US5919374A, “Method of disinfecting water with iodine species” (Iosolutions Incorporated, priority 1997, dated 1999).

Read-outs that look alike come from different tables or passages of the source.

In one data set the test system is viruses. To be noted: higher pHs, e.g. 7-10; cited from earlier work.
For data set [1] the following is noted: above pH 8, especially in the presence of dissolved iodides; Chang (1); cited from earlier work.
The test system of data set [2] is chickens. The following applies: cited from earlier work.
A further data set has as its system bacteria. To be noted: pHs 5-7; cited from earlier work.
Data set [3] can be described thus: Concentration of iodine species in water leaving the crystalline iodine generators. The following applies: pH 6-8, flow about 200 ml/minute. In kind it is physicochemical. As for the experimental part: Artesian water is fed through inlet conduit 8 past shut-off valve 10 through preconditioner 12 at a flow rate of not less than 2 l. per minute and not more than about 50 l. per minute preferably on average about 10 l. per minute at a pH 6-8, […] Main flow water passes through conduit 14 where some of the main flow is diverted to iodine generator assembly 15 through conduit 16 at a flow rate of about 200 ml/minute. The rest of the main flow flows through flow restrictor disk 20 such that an absolute pressure drop of about 2 psi is generated across flow restrictor disk 20. Flow restrictor 20 governs the rate of flow of diverted main flow which ultimately reaches iodine generator assembly 15. The main flow now proceeds through flow switch 22, such that, at a pre-set flow rate exceeding 2 l per minute, the flow switch 22 generates an electrical impulse which is fed to dual action solenoid valve 24. Such an impulse is continuous and causes solenoid valve 24 to open and remain so, as long as the flow rate is maintained above 2 l per minute. The rest of the main flow continues through conduit 14 uninterrupted until iodine liquor is blended back into the main flow at iodine species liquor injection port 44. […]

For data set [4] the following is noted: crystalline iodine in water; cited from earlier work.
Data set [5] has as its system chickens. Nature of the data set: Safe consumption of residual iodine by chickens.
Data set [6] has as its system E. coli fecal streptococci. The following applies: cited from earlier work.
For another data set, the system named is E. coli. To be noted: cited from earlier work.

In the case of `OI` [HOI, hypoiodous acid], the virucidal action entry with viruses is listed as “efficient virucide”. For the same molecule, in data set [1], the “decomposition to iodide and iodate ions” value was “decomposes slowly”.
With `II` [iodine], the LD50 result in the data set on chickens [2] is reported as “about 625 ppm”. In addition, the antibacterial action result with bacteria is reported as “exhibits antibacterial action”. Also, the “concentration of iodine species concentrate” value in data set [3] (first iodine generator, about 20° C.) is on record as 200-240 ppm. Also, the “concentration of resultant (saturated) iodine liquor” value in data set [3] (second iodine generator, about 28° C.) was 280-320 ppm. For the same molecule, the “solubility in water versus temperature” value in data set [4] is reported as “directly proportional to the temperature of the water”. Also, the “concentration of residual iodine chickens could safely consume” value with chickens [5] was “about 2 ppm”. For the same molecule, the “% Kill” value in data set [6] (Black et al., 1968, 18 C., contact time 1 min, 0.5 ppm I2) is reported as 99.99%; in [6] (Ellis et al., 1989, 20 C., contact time 30 min, avg. 4 ppm I2), 99.99%; in the data set with E. coli it was 99.99%. Further, the “concentration by which E coli is effectively killed” value in the data set with E. coli is listed as 1-10 ppm.
